Measured values from patent US20230097090A1, “IMPROVED LIPID NANOPARTICLES FOR DELIVERY OF NUCLEIC ACIDS” (ACUITAS THERAPEUTICS, INC., priority 2019, published 2023).

Test: pKa of representative cationic lipids
Format: physicochemical
[1] = Table 2, lipids of Formula (II)
[2] = first Table 12, representative lipid compounds XIII

Row | SMILES | pKa [1] | pKa [2]
1 | CCCCC(CCCC)OC(=O)CCCCCCCCC(CCCCCCCCC(=O)OC(CCCC)CCCC)N(CCCN(C)C)C(=O)CCCCCCCC(=O)OC(CCCC)CCCC [II-24] | 6.14 | –
2 | CCCCCCCCCCN(C(=O)CCN1CCCC1)C(CCCCCCCCC(=O)OCC(CCCC)CCCCCC)CCCCCCCCC(=O)OCC(CCCC)CCCCCC (stereo not shown) [XIII-33] | – | 6.19
3 | CCCCCCC(CCCC)COC(=O)CCCCCCCCC(CCCCCCCCC(=O)OCC(CCCC)CCCCCC)N(CC(CC)CCCC)C(=O)CCCN(C)C (stereo not shown) [XIII-20] | – | 6.84
4 | CCCCCCCCCN(C(=O)CCCN(C)C)C(CCCCCCCCCOC(=O)C(CCCC)CCCCCC)CCCCCCCCCOC(=O)C(CCCC)CCCCCC (stereo not shown) [XIII-32] | – | 6.41
5 | CCCCCCCCCCN(C(=O)CCCCN1CCCC1)C(CCCCCCCCC(=O)OCC(CCCC)CCCCCC)CCCCCCCCC(=O)OCC(CCCC)CCCCCC (stereo not shown) [XIII-9] | – | 6.83
6 | CCCCCCCCC(=O)N(CCCN(C)C)C(CCCCCCCCCOC(=O)C(CCCC)CCCCCC)CCCCCCCCCOC(=O)C(CCCC)CCCCCC (stereo not shown) [II-17] | 6.27 | –
7 | CCCCCCCCCCN(C(=O)CCCN1CCCC1)C(CCCCCC(=O)OCC(CCCCCC)CCCCCCCC)CCCCCC(=O)OCC(CCCCCC)CCCCCCCC (stereo not shown) [XIII-29] | – | 6.81
8 | CCCCCCCCCCN(C(=O)CCCCN(CC)CC)C(CCCCCCCCC(=O)OCC(CCCC)CCCCCC)CCCCCCCCC(=O)OCC(CCCC)CCCCCC (stereo not shown) [XIII-8] | – | 6.68
9 | CCCCCCCCCCN(C(=O)CCCCN(CCCC)CCCC)C(CCCCCCCCC(=O)OCC(CCCC)CCCCCC)CCCCCCCCC(=O)OCC(CCCC)CCCCCC (stereo not shown) [XIII-31] | – | 5.05
10 | CCCCCCCCCN(C(=O)CCN(C)C)C(CCCCCCCCC(=O)OCC(CCCC)CCCCCC)CCCCCCCCC(=O)OCC(CCCC)CCCCCC (stereo not shown) [XIII-25] | – | 6.2
11 | CCCCCCCCCCN(C(=O)CCCCN(C)C)C(CCCCCCCCC(=O)OCC(CCCC)CCCCCC)CCCCCCCCC(=O)OCC(CCCC)CCCCCC (stereo not shown) [XIII-7] | – | 6.74
12 | CCCCCCCCCCN(C(=O)CCCN(C)C)C(CCCCCCCCC(=O)OCC(CCCC)CCCCCC)CCCCCCCCC(=O)OCC(CCCC)CCCCCC (stereo not shown) [XIII-18] | – | 6.47
13 | CCCCCCCCCCN(C(=O)CCCN(C)C)C(CCCCCC(=O)OCC(CCCCCC)CCCCCCCC)CCCCCC(=O)OCC(CCCCCC)CCCCCCCC (stereo not shown) [XIII-16] | – | 6.77
